# ChEMBL document CHEMBL1201862, “PubChem BioAssay data set” (2004)
#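 Interpolation was linear, between the two tested concentrations surrounding the appropriate level; five concentrations were tested over 48 hours in 96-well plates. GI50 marks 50% less growth.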 The source made the active and inactive calls. Cut-off read from the data, not from the text of the source: active = GI50 up to about 1.1 µM and inactive = higher.
# Legend:
# Test in all cases: NCI-60 cell line screen, 48 h
# DLD-1 = tested on: DLD-1
# DMS-114 = tested on: DMS-114
# DMS-273 = tested on: DMS-273
# KM-20L2 = tested on: KM-20L2
# LXFL 529 = tested on: LXFL 529
# SNB-78 = tested on: SNB-78
# XF498 = tested on: XF498
# HOP-18 = tested on: HOP-18
# RXF 631 = tested on: RXF 631
SMILES,GI50 (DLD-1),GI50 (DMS-114),GI50 (DMS-273),GI50 (KM-20L2),GI50 (LXFL 529),GI50 (SNB-78),GI50 (XF498),GI50 (HOP-18),GI50 (RXF 631)
O=c1[nH]n2c(=O)cc[nH]c2c1-c1nnns1,> 100 µM (inactive),> 100 µM (inactive),> 100 µM (inactive),> 100 µM (inactive),> 100 µM (inactive),> 100 µM (inactive),> 100 µM (inactive),–,–
CCCC/C=C/C1Cc2ccccc2CN1S(=O)(=O)c1ccc(C)cc1 (stereo not drawn),7.71 µM (inactive),3.03 µM (inactive),7.71 µM (inactive),11.6 µM (inactive),5.42 µM (inactive),–,17 µM (inactive),83 µM (inactive),5.78 µM (inactive)
NCCn1cnc2nc(NC(=O)c3ccccc3)[nH]c(=O)c21,> 100 µM (inactive),> 100 µM (inactive),–,> 100 µM (inactive),> 100 µM (inactive),> 100 µM (inactive),–,> 100 µM (inactive),> 100 µM (inactive)
COc1ccc2c(c1OCC(=O)O)C(=O)C(CCC(=O)O)CC2 (stereo not drawn),> 100 µM (inactive),> 100 µM (inactive),> 100 µM (inactive),> 100 µM (inactive),> 100 µM (inactive),> 100 µM (inactive),71.1 µM (inactive),> 100 µM (inactive),> 100 µM (inactive)
O=C1C(=O)N(C2C3CC4CC(C3)CC2C4)C(=O)C(=O)C1c1nc2ccccc2o1 (stereo not drawn),37.3 µM (inactive),19.4 µM (inactive),> 100 µM (inactive),82 µM (inactive),46.9 µM (inactive),> 100 µM (inactive),74 µM (inactive),54.2 µM (inactive),> 100 µM (inactive)
CC1(c2cccc3ccccc23)OC(=O)c2ccccc21 (stereo not drawn),22.5 µM (inactive),13.4 µM (inactive),10.8 µM (inactive),17.2 µM (inactive),26.5 µM (inactive),41.7 µM (inactive),18.2 µM (inactive),–,20.2 µM (inactive)
O=C(OCCOCBr)c1ccccc1,> 100 µM (inactive),> 100 µM (inactive),> 100 µM (inactive),> 100 µM (inactive),> 100 µM (inactive),> 100 µM (inactive),–,> 100 µM (inactive),> 100 µM (inactive)
Cc1nn(C)c(=S)n(C)c1=O,3.16 µM (inactive),0.269 µM (active),0.427 µM (active),24.9 µM (inactive),0.515 µM (active),3.18 µM (inactive),1.15 µM (inactive),0.43 µM (active),–
COc1cc(/C=C2\CCC/C(=C\c3ccc(O)c(OC)c3)C2=O)ccc1O [CYCLOVALONE],1.75 µM (inactive),1.77 µM (inactive),1.51 µM (inactive),15.2 µM (inactive),1.85 µM (inactive),2.75 µM (inactive),5.7 µM (inactive),2.74 µM (inactive),–
CCC1(O)C(=O)OCc2c1cc1n(c2=O)Cc2cc3cc4c(cc3nc2-1)OCO4 (stereo not drawn),0.0759 µM (active),< 0.01 µM (active),< 0.01 µM (active),0.0137 µM (active),0.0617 µM (active),3.37 µM (inactive),< 0.0185 µM (active),< 0.01 µM (active),0.0176 µM (active)
CC(=O)Oc1ccc2c(=O)c(C(C)=O)coc2c1,–,–,> 100 µM (inactive),> 100 µM (inactive),> 100 µM (inactive),80 µM (inactive),83.9 µM (inactive),–,–
Cc1ccc(/C=N/C23CC4CC(CC(C4)C2)C3)cc1,–,27.5 µM (inactive),> 100 µM (inactive),> 100 µM (inactive),–,> 100 µM (inactive),83 µM (inactive),–,–
O=c1c2c(nc3n1CCC3)sc1c(O)c(Br)ccc12,27.7 µM (inactive),16.3 µM (inactive),14.9 µM (inactive),13.5 µM (inactive),–,33.3 µM (inactive),21.5 µM (inactive),> 100 µM (inactive),–
COC(=O)NC(=O)c1cn(C2CCCCC2)c(=O)[nH]c1=O,> 100 µM (inactive),> 100 µM (inactive),> 100 µM (inactive),> 100 µM (inactive),> 100 µM (inactive),> 100 µM (inactive),–,> 100 µM (inactive),–
COc1ccccc1/C=C(\C#N)C(=O)c1ccccc1,–,> 100 µM (inactive),> 100 µM (inactive),> 100 µM (inactive),–,> 100 µM (inactive),> 100 µM (inactive),–,–
CC(=O)O[C@]1(C)CCC2C(C)C(=O)OC2C2C(C)[C@@H](O)CC21 (stereo partly drawn),41.4 µM (inactive),–,22.4 µM (inactive),29.3 µM (inactive),21.7 µM (inactive),74 µM (inactive),–,40.6 µM (inactive),–
Cc1ccc(S(=O)(=O)c2ccc(N)cc2)cc1,> 100 µM (inactive),–,> 100 µM (inactive),> 100 µM (inactive),> 100 µM (inactive),> 100 µM (inactive),> 100 µM (inactive),–,> 100 µM (inactive)
C/C(=N\NC(N)=O)c1sc(-c2nc(C)c(/C(C)=N/NC(N)=O)s2)nc1C,46.6 µM (inactive),–,21.1 µM (inactive),49.3 µM (inactive),> 100 µM (inactive),> 100 µM (inactive),> 100 µM (inactive),> 100 µM (inactive),–
N/N=C(/Cc1nc2ccc(C(=O)c3ccccc3)cc2nc1O)C(=O)Nc1ccc([N+](=O)[O-])cc1[N+](=O)[O-],–,> 10 µM (inactive),> 10 µM (inactive),> 100 µM (inactive),> 10 µM (inactive),> 10 µM (inactive),8.07 µM (inactive),35.5 µM (inactive),–
CCCCCCCCC(=O)NCCN(CCN)C(=O)CCCCCCCC,5.37 µM (inactive),4.79 µM (inactive),2.87 µM (inactive),5.04 µM (inactive),3.36 µM (inactive),10.4 µM (inactive),2.42 µM (inactive),16.7 µM (inactive),4.08 µM (inactive)
COc1cc(Cc2nccc3cc(OC)c(OC)cc23)c(C(C)=O)cc1OC,136 µM (inactive),5.94 µM (inactive),14.9 µM (inactive),56.9 µM (inactive),25.5 µM (inactive),74.6 µM (inactive),12.2 µM (inactive),> 300 µM (inactive),> 750 µM (inactive)
Nc1ccc(C(=O)CC2(O)C(=O)Nc3c(Cl)cc(Cl)cc32)cc1 (stereo not drawn),42.9 µM (inactive),–,–,> 100 µM (inactive),37.8 µM (inactive),–,–,90.6 µM (inactive),28.8 µM (inactive)
O=[N+]([O-])c1cc(I)cc(/C=N/NS(=O)(=O)c2ccc(Cl)cc2)c1O,26 µM (inactive),–,19.8 µM (inactive),36 µM (inactive),19.4 µM (inactive),27.5 µM (inactive),–,19.1 µM (inactive),22.7 µM (inactive)
CCOC(=O)c1oc2c(OC)cc(Cl)c3c2c1CCC3,> 100 µM (inactive),> 100 µM (inactive),92 µM (inactive),–,> 100 µM (inactive),> 100 µM (inactive),19.5 µM (inactive),–,–
